In article PMC8686763, “Pre-Steady-State Kinetics of the SARS-CoV-2 Main Protease as a Powerful Tool for Antiviral Drug Discovery” (Frontiers in Pharmacology, 2021):
Where two headings read alike, the source gives them in different places.

Assays:
SARS-CoV-2 M^pro (WT) = SARS-CoV-2 M^pro (WT) (Severe acute respiratory syndrome coronavirus 2, UniProt P0DTD1); experiment: biochemical; type: binding; details: for ΔTm at 50 µM: read-out: ΔTm
WT M^pro = WT M^pro (Severe acute respiratory syndrome coronavirus 2, UniProt P0DTD1); type: binding
[1] = 5 μM M^pro, 50 μM inhibitor, vs DMSO control

| Compound | Tm (SARS-CoV-2 M^pro (WT)) | change of protein Tm upon binding (in words) (SARS-CoV-2 M^pro (WT)) | ΔTm at 50 µM (SARS-CoV-2 M^pro (WT); [1]) | K 2 (= k 2/k −2) (WT M^pro) | k 2 (WT M^pro) | k -2 (WT M^pro) | k chem (WT M^pro) | k 1 (WT M^pro; 25 °C) | k -1 (WT M^pro; 25 °C) | ΔTm at 50 µM (SARS-CoV-2 M^pro (WT)) | Tm (SARS-CoV-2 M^pro (WT); 5 μM M^pro, 50 μM inhibitor, DMSO control 56.25) |
| --- | --- | --- | --- | --- | --- | --- | --- | --- | --- | --- | --- |
| CC(C)(C)NC(=O)N[C@H](C(=O)N1C[C@H]2[C@@H]([C@H]1C(=O)NC(CC1CCC1)C(=O)C(N)=O)C2(C)C)C(C)(C)C (stereo partly drawn) [Boceprevir] | 62.00 °C | caused changes of protein Tm | 5.75 °C |  |  |  |  |  |  |  |  |
| COc1cccc2[nH]c(C(=O)N[C@@H](CC(C)C)C(=O)N[C@@H](C[C@@H]3CCNC3=O)C(=O)CO)cc12 [PF-00835231] | 70.25 °C | caused changes of protein Tm |  | 0.37 ± 0.07 | 0.90 ± 0.18 s⁻¹ | 2.4 ± 0.1 s⁻¹ | 0.17 ± 0.07 s⁻¹ | (0.35 ± 0.09)×10^6 M^−1×s^−1 | 12.4 ± 0.6 s⁻¹ | ~14 °C |  |
| CCC[C@H](NC(=O)[C@@H]1[C@H]2CCC[C@H]2CN1C(=O)[C@@H](NC(=O)[C@@H](NC(=O)c1cnccn1)C1CCCCC1)C(C)(C)C)C(=O)C(=O)NC1CC1 [Telaprevir] |  | did not result in Tm changes | 0 °C |  |  |  |  |  |  |  | 56.25 °C |
